ChEMBL document CHEMBL1147305, “Inhibition of protein-tyrosine kinase activity by flavanoids and related compounds” (J Nat Prod, 1989)
In brackets after ≈: the same amount, converted by molar mass. Activity calls are given as the source filed them. No cut-off for these calls is given here.

Species on record: Bos taurus
Assay: Inhibition of bovine thymocytes protein tyrosine kinase assessed as angiotensin 1 phosphorylation

Row | SMILES | ID50 | Activity
1 | O=C1C[C@@H](c2ccccc2)Oc2cc(O)cc(O)c21 | > 500 µg/mL | –
2 | O=c1cc(-c2ccc(O)cc2)oc2cc(O)cc(O)c12 | 90 µg/mL (≈ 333 µM) | –
3 | O=c1c(O)c(-c2ccc(O)c(O)c2)oc2cc(O)ccc12 | 35 µg/mL (≈ 122 µM) | –
4 | C[C@H]1O[C@@H](Oc2c(-c3cc(O)c(O)c(O)c3)oc3cc(O)cc(O)c3c2=O)[C@@H](O)[C@@H](O)[C@@H]1O | > 500 µg/mL | –
5 | COc1ccc(-c2cc(=O)c3c(O)c(OC)c(O)c(OC)c3o2)cc1 | 48 µg/mL (≈ 139 µM) | –
6 | O=C(O)/C=C/c1ccc(O)cc1 | 450 µg/mL (≈ 2740 µM) | –
7 | O=c1c(-c2ccc(O)cc2)coc2cc(O)c(O)cc12 | > 500 µg/mL | –
8 | COc1cc(/C=C/C(=O)O)ccc1O | 350 µg/mL (≈ 1800 µM) | –
9 | COc1ccc(-c2cc(=O)c3c(O)cc(O)cc3o2)cc1 | 300 µg/mL (≈ 1060 µM) | –
10 | COc1ccc(-c2oc3cc(OC)cc(O)c3c(=O)c2OC)cc1 | > 500 µg/mL | –
11 | O=c1c(-c2ccc(O)cc2)coc2cc(O)cc(O)c12 | > 500 µg/mL | –
12 | COc1ccc(-c2cc(=O)c3c(O)cc(OC)cc3o2)cc1 | > 500 µg/mL | –
13 | O=c1c(O)c(-c2cc(O)c(O)c(O)c2)oc2cc(O)ccc12 | 7 µg/mL (≈ 23.2 µM) | –
14 | O=C1C[C@@H](c2ccc(O)cc2)Oc2cc(O)cc(O)c21 | 80 µg/mL (≈ 294 µM) | –
15 | COc1ccc(-c2coc3cc(O)cc(O)c3c2=O)cc1 | > 500 µg/mL | –
16 | O=c1cc(-c2ccccc2)oc2ccc3ccccc3c12 | – | inactive
17 | COc1ccc(-c2oc3cc(O)cc(O)c3c(=O)c2OC)cc1 | > 500 µg/mL | –
18 | O=C1c2c(O)cc(O)cc2O[C@H](c2ccc(O)c(O)c2)[C@H]1O | 270 µg/mL (≈ 887 µM) | –
19 | O=c1c(O)c(-c2cc(O)c(O)c(O)c2)oc2cc(O)cc(O)c12 | 11 µg/mL (≈ 34.6 µM) | –
20 | O=C1CC(c2ccccc2)Oc2cc(O)ccc21 (stereo not drawn) | > 500 µg/mL | –
21 | COc1cc(C(=O)O)cc(OC)c1O | > 500 µg/mL | –
22 | O=C1c2ccc(O)cc2O[C@H](c2ccc(O)c(O)c2)[C@H]1O | > 500 µg/mL | –
23 | O=c1c(O)c(-c2ccc(O)c(O)c2)oc2cc(O)cc(O)c12 | 11 µg/mL (≈ 36.4 µM) | –
